# Assay results reported in patent US20140088032A1, “TREATMENT OF MASTITIS” (priority 2011, published 2014).
# “And” between values parts separate entries of the source, which are not always exact repeats. Identical values can stand only once. “Also recorded” adds a separate entry of the source. Counter-ions that a name gives are not always drawn. Like-named read-outs stand apart in the source and are kept apart here.
# Key:
# [1] = test system: Staphylococcus aureus strain Newbould 305 (ATCC 29740); assay: Example 1: experimental S. aureus mastitis in lactating cows, intramammary treatment; format: in vivo, Prim'Holstein lactating cows
# Protocol: A Staphylococcus aureus strain Newbould 305 (ATCC 29740) stock suspension (about 10^11 CFU/ml) was kept frozen at −80° C. in peptone physiological water with 10% of glycerol. On day 0, the stock solution was thawed and diluted in peptone physiological water to a concentration of ca 1000 cfu/ml.
# On Day 0 8 Prim'Holstein lactating cows, animals of between 2-5 years old and at least 2 months in lactation, were intramammarily inoculated into two homolateral quarters with 1 ml of S. aureus suspension per quarter (ca. 1000 cfu/quarter) into the teat cistern with sterile 2-ml syringes. Teat ends were disinfected with towels soaked in a disinfectant solution before infusion.
# On day 6 after the challenge 4 cows (8 quarters) were treated with 75 mg cefquinome—one injector after each of 3 consecutive milkings—Group A. The 4 other cows infected were treated with 75 mg cefquinome as well, but 10 μg of re-LPS were infused just before each cefquinome infusion—Group B.
# The standard assay for measuring mastitis in the dairy industry is to count the number of cells (originating from the cow) in the milk. This estimate is termed the somatic cell count (SCC). Specifically, the SCC reflects the levels of cells, including immune cells, such as leukocytes that are released from the lining and tissues of the udder of the infected animal, into the udder cavity. The number of somatic cells in a given volume of milk (typically 1 ml) provides a semi-quantitative estimate of the degree of mastitis, because unaffected animals typically have low SCC levels.
# Milk samples were investigated for S. aureus presence and SCC levels at several time points during the study (days 2, 6, 9, 13, 16, 20, 23 post challenge for S. aureus bacteriology).
# Clinical cure was assessed 16 days after treatment end (i.e. 23 days after the challenge), and was defined as having at least the two last consecutive milk samples with SCC <250000 cells/ml.
# [2] = test system: Staphylococcus aureus strain Newbould 305 (ATCC 29740); assay: Example 2: experimental S. aureus mastitis in lactating cows, intramammary treatment; format: in vivo, Prim'Holstein lactating cows; conditions: after Re-LPS infusion with neomycin/penicillin
# Protocol: A Staphylococcus aureus strain Newbould 305 (ATCC 29740) stock suspension (about 10^9 CFU/ml) was kept frozen at −80° C. in peptone physiological water with 10% of glycerol. On day 0, the stock solution was thawed and diluted in peptone physiological water to a concentration of ca 200 cfu/ml.
# On Day 0, 12 Prim'Holstein lactating cows, animals of between 2-8 years old and at least 1 month in lactation, were inoculated by intramammary route into two homo-lateral quarters, with 5 ml of S. aureus suspension per quarter (ca. 1000 cfu/quarter), using 5-ml syringes. Teat ends were disinfected with towels soaked in a disinfectant solution before infusion. […]
# The standard assay for measuring mastitis in the dairy industry is to count the number of cells (originating from the cow) in the milk. […] The number of somatic cells in a given volume of milk (typically 1 ml) provides a semi-quantitative estimate of the degree of mastitis, because unaffected animals typically have low SCC levels. […]
# Bacteriological cure was assessed 16 days after treatment end (i.e. 24 days after the challenge) and was defined as having at least the two last consecutive milk samples found negative for S. aureus (<5 cfu/ml).
# Clinical cure was assessed 16 days after treatment end (i.e. 24 days after the challenge), and was defined as having at least the two last consecutive milk samples with SCC <250000 cells/ml.
# TLR4 = conditions: relative to native LPS; cited from earlier work
# [3] = relative to native LPS; cited from earlier work
# [4] = test system: S. aureus strain Newbould 305; assay: MIC against the S. aureus challenge strain; format: cell-based, Staphylococcus aureus; conditions: S. aureus Newbould 305 strain used for the challenge
compound,measurement,setting,value
"CCCCCCCCCCCCCC(=O)O[C@H](CCCCCCCCCCC)CC(=O)OC1C(NC(=O)C[C@@H](CCCCCCCCCCC)OC(=O)CCCCCCCCCCC)[C@H](OCC2O[C@H](OP(=O)(O)O)C(NC(=O)C[C@H](O)CCCCCCCCCCC)C(OC(=O)C[C@H](O)CCCCCCCCCCC)[C@@H]2O)OC(CO[C@]2(C(=O)O)CC(O[C@]3(C(=O)O)CC(O)[C@@H](O)C([C@H](O)CO)O3)[C@@H](O)C([C@H](O)CO)O2)[C@H]1OP(=O)(O)O.N.N.N.N (stereo partly drawn) [Re-LPS, Kdo2-lipid A]",SCC levels induced by treatment,"[1]; after Re-LPS infusion with cefquinome, Example 1",above 1.10^6 cells per ml
same,SCC levels induced by treatment,[2],above 1.10^6 cells per ml
same,Ability to activate TLR4,TLR4,comparable to that of native LPS
same,Endotoxin activity,[3],equal to that of native LPS; also recorded: comparable to that of native LPS
CC1(C)S[C@@H]2[C@H](NC(=O)Cc3ccccc3)C(=O)N2[C@H]1C(=O)O [benzyl penicillin],MIC,"[4]; Staphylococcus aureus, read-out: MIC",0.064 µg/mL
"CO/N=C(\C(=O)N[C@@H]1C(=O)N2C(C(=O)[O-])=C(C[n+]3cccc4c3CCCC4)CS[C@H]12)c1csc(N)n1 [cefquinome, I1-[[(6R,7R)-7-[[(2Z)-(2-amino-4-thiazolyl)-(methoxyimino)acetyl]amino]-2-carboxy-8-oxo-5-thia-1-azabicyclo[4.2.0-oct-2-en-3-yl]methyl]-5,6,7,8-tetrahydroquinoliniuminner salt]",MIC,[4],0.25 µg/mL
same,"Quarters cure rate, bacteriological + clinical",[1]; day 23,37.5% (3/8)
same,"Quarters cure rate, clinical","[1]; day 23, two last samples SCC <250000 cells/ml",37.5% (3/8)
same,Cure,"[1]; individual quarter, assessed at day 23 (16 days after treatment end)",no (4×) and yes (4×)
same,Quarter milk SCC at day 9,"[1]; individual quarter, day 9 relative to infection (day 0), treatment at day 6",628 ×10^3 cell/ml and 310 ×10^3 cell/ml and 521 ×10^3 cell/ml and 533 ×10^3 cell/ml and 763 ×10^3 cell/ml and 334 ×10^3 cell/ml and 795 ×10^3 cell/ml and 249 ×10^3 cell/ml
same,Quarter milk SCC at day 13,"[1]; individual quarter, day 13 relative to infection, treatment at day 6",384 ×10^3 cell/ml and 828 ×10^3 cell/ml and 1533 ×10^3 cell/ml and 414 ×10^3 cell/ml and 250 ×10^3 cell/ml and 177 ×10^3 cell/ml and 112 ×10^3 cell/ml and 134 ×10^3 cell/ml
same,Quarter milk SCC at day 16,"[1]; individual quarter, day 16 relative to infection, treatment at day 6",2032 ×10^3 cell/ml and 921 ×10^3 cell/ml and 254 ×10^3 cell/ml and 317 ×10^3 cell/ml and 74 ×10^3 cell/ml and 125 ×10^3 cell/ml and 785 ×10^3 cell/ml and 95 ×10^3 cell/ml
same,Quarter milk SCC at day 20,"[1]; individual quarter, day 20 relative to infection, treatment at day 6",2008 ×10^3 cell/ml and 717 ×10^3 cell/ml and 281 ×10^3 cell/ml and 589 ×10^3 cell/ml and 137 ×10^3 cell/ml and 177 ×10^3 cell/ml and 1686 ×10^3 cell/ml and 77 ×10^3 cell/ml
same,Quarter milk SCC at day 23,"[1]; individual quarter, day 23 relative to infection, treatment at day 6",1382 ×10^3 cell/ml and 739 ×10^3 cell/ml and 536 ×10^3 cell/ml and 186 ×10^3 cell/ml and 98 ×10^3 cell/ml and 109 ×10^3 cell/ml and 2482 ×10^3 cell/ml and 47 ×10^3 cell/ml
neomycin,MIC,[4],2 µg/mL
